In patent US20090325202A1, “Methods for Developing and Assessing Therapeutic Agents” (priority 2006, published 2009):

Columns and labels:
p70S6K = experiment: IHC staining of phospho-p70S6K in resected xenograft tumor tissue; type: in vivo, human
Experimental: At the completion of the treatment course, xenografted tissues were harvested and fixed in formalin for 24 hrs. The fixed tissues were paraffin-embedded and cut in 0.5 micron sections onto positively-charged glass slides for immunohistochemical (IHC) labeling. Analysis was performed to determine the IHC pharmacodynamic effects of the drug in the targeted pathway. For IHC staining, slides were deparaffinized and rehydrated in graded concentrations of alcohol by standard techniques before antigen retrieval in citrate buffer pH 6.0 for 20 minutes. Next, the slides were cooled for 20 minutes before washing in 1× TBST (Dako Corp. Carpinteria, Calif.). All staining was performed using a DAKO Autostainer at room temperature. Slides were incubated in 3% H2O2 for 10 minutes, followed by the appropriate dilution of primary antibody for 60 minutes. Tris-HCl (0.2M, pH 7.5) (Quality Biological, Inc, Gaithersburg, Md.) was used as the antibody diluent solution. Dilutions of antibodies used were as follows: Total ERK1/2 (Cell Signaling Technology, Beverly, Mass.) 1:25, p-ERK1/2 (Thr202/Tyr204) (Cell Signaling Technology, Beverly, Mass.) 1:50, p70S6K (Santa Cruz Biotechnology) 1:50, and pp70S6K (Cell Signaling Technology, Beverly, Mass.) 1:50. […]

S6-RP = experiment: Ex vivo FNAB drug sensitivity assay, S6-RP phosphorylation by Western blot; type: cell-based, human
Experimental: Tumor cells were collected by FNAB from the xenograft animals before the start of treatment using a sterile 25G short needle. Tumor samples were immediately transferred into 10 ml sterile prewarmed complete RPMI-1640 culture medium containing 10% FBS, penicillin (200 μg/ml), and streptomycin (200 μg/ml). Cells were incubated with 0.04% trypan blue (Sigma) dissolved in PBS (9.1 mM Na2HPO4, 1.7 mM NaH2PO4, and 150 mM NaCl, pH 7.4). The viable (membrane-intact) and dead cells were then counted using Neubauer hemocytometer and the total viable cell count was used to calculate final working volumes. Approximately 25,000 viable tumor cells were seeded into each well of a 6-well polypropylene microplate. Cells were treated in duplicates with vehicle (control), erlotinib (5 μM) or temsirolimus (1 μM) in a humidified 5% CO2 incubator at 37° C. for 6 hours. No fibroblast and endothelial cell growth was observed. Following treatment, non-adherent and adherent cells (only a few, collected by scraping) were pooled together and centrifuged at 500×g for 5 min at 4° C. After washing with PBS, cells were lysed in 100 μL of ice-cold lysis buffer (50 mM Tris-HCl, 0.25M NaCl, 0.1% (v/v) Triton X-100, 1 mM EDTA, 50 mM NaF, and 0.1 mM Na3VO4, pH 7.4) containing protease and phosphatase inhibitors (Roche Molecular Biochemicals) and analyzed by Western blot.
Protein concentrations obtained from FNAB samples were quantified before each experiment. Protein extracts (15 μg) were electrophoresed on a 10% (w/v) SDS-polyacrylamide gel. After electrotransfer to Immobilon-P membranes (Millipore), membranes were blocked at room temperature using SuperBlock (Pierce) for one hour. The primary antibodies were diluted at 1:1000 in 1:10 dilution of SuperBlock solution and the membranes were incubated with primary antibodies overnight at 4° C. The antibodies tested were phospho-ERK1/2 (Cell signal #9101), phospho-S6 Ribosomal Protein (Cell Signaling Technology, Beverly, Mass.) and total ERK1/2 (Cell Signaling Technology, Beverly, Mass.) and total S6 Ribosomal Protein (Cell Signaling Technology, Beverly, Mass.). The next day, the membranes were washed and incubated for 1 h at room temperature with horseradish peroxidase (HRP)-conjugated secondary antibodies, rabbit IgG-HRP (Santa Cruz Biotechnology), or mouse IgG-HRP (Santa Cruz Biotechnology) at a final dilution of 1:3000. […]
To test if tumor cells obtained by FNAB can be used in the ex vivo assays to predict tumor response in vivo, 25,000 viable cancer cells, as determined by trypan blue dye exclusion, were treated with erlotinib or temsirolimus for six hours, after which signal pathway inhibition was analyzed by Western blot. Under these cell culture conditions no fibroblast and endothelial cell growth was detected (data not shown). […]

## CO[C@H]1C[C@@H]2CC[C@@H](C)[C@@](O)(O2)C(=O)C(=O)N2CCCC[C@H]2C(=O)O[C@H]([C@H](C)C[C@@H]2CC[C@@H](OC(=O)C(C)(CO)CO)[C@H](OC)C2)CC(=O)[C@H](C)/C=C(\C)[C@@H](O)[C@@H](OC)C(=O)[C@H](C)C[C@H](C)/C=C/C=C/C=C/1C [temsirolimus, Temsirolimus]
p70S6K; tumor A194, in vivo treated with temsirolimus
  IHC staining for phosphorylated p70S6K: no effect
p70S6K; tumor A198, in vivo treated with temsirolimus
  IHC staining for phosphorylated p70S6K: strongly decreased staining
S6-RP; all tumors of the xenograft panel sensitive to therapy, temsirolimus 1 μM, 6 hours
  S6-RP phosphorylation ex vivo: blocked S6-RP phosphorylation
S6-RP; cancer cells from pancreatic cancer patient 1, six hours
  S6-RP phosphorylation ex vivo: only partially decreased S6-RP phosphorylation
S6-RP; cells from tumor A198, temsirolimus 1 μM, 6 hours
  phosphorylation of S6-RP ex vivo: inhibited phosphorylation of S6-RP
S6-RP; tumor cells of pancreatic cancer patient 2 and 3, six hours
  S6-RP phosphorylation ex vivo: inhibited S6-RP phosphorylation
